# What was measured:
# irradiated scalp = assay: Laser Doppler analysis of perfusion of irradiated scalp, DFO injected beneath the dermis (Example 1); type: in vivo, mice
# Procedure: (§1) Adult 60-day-old male Crl:NU-Fox1^NU immunocompromised mice were used for experiments in this study. Twelve mice were treated with a total of 30 Gy external beam radiation, delivered as six fractionated doses of 5 Gy each over 12 days, followed by 5 weeks of recovery. An additional six non-irradiated mice were used as healthy controls for laser Doppler analysis (LDA) and skin analysis. Irradiated mice were divided into two treatment groups: a DFO experimental group and saline control group. Following recovery, mice underwent injection of either DFO (1 mg in 100 μl saline) or 100 μl of saline alone beneath the dermis every other day for a total of seven treatments.
# (§2) After irradiation, fat grafting was performed on the irradiated mice. After informed consent was obtained, lipoaspirate was obtained from three healthy female donors, with no other medical co-morbidities under an approved IRB protocol #2188. Lipoaspirate was allowed to settle for 15 minutes for layers to separate by gravity sedimentation, and then oil and blood layers were removed by vacuum aspiration. The remaining fat layer was centrifuged at 1300 rcf for 3 minutes at 4° C. Any remaining oil and blood was again removed and the remaining fat was transferred into 1 cc syringes for injection through a 14-gauge needle. Fat grafting was performed beneath the scalp by creating a subcutaneous tunnel with the needle and then injecting 200 μl of lipoaspirate in retrograde fashion while pulling the needle out.
# Laser Doppler Analysis (“LDA”) was performed to measure perfusion at the irradiated site using a Perimed PIM 3 laser Doppler perfusion imager (Datavagen, Sweden). The signal generated by the LDA, laser Doppler perfusion index (LDPI), was used for comparative purposes. LDPI is a product of the blood cell velocity and concentration and is represented by a color spectrum, with black/dark blue representing low perfusion and red representing high perfusion. […]
# Five images were taken of each mouse, and the average LDPI of the five images was recorded. […]
# [1] = system: fat grafts in irradiated scalp; assay: Fat graft volume retention by micro-CT in DFO preconditioned irradiated scalp (Example 1); type: in vivo, mice
# Procedure: as §1, §2
# Mice were also imaged using a MicroCAT-II in vivo X-Ray micro-CT scanner (Imtek, Inc.; Knoxville, Tenn.) two days after fat graft injection for baseline volume measurements. Fat graft volume retention was then analyzed every two weeks over a total of 8 weeks using microcomputed tomography, and images were reconstructed as three-dimensional surfaces through cubic-spline interpolation. All reconstructions were performed by a single investigator to avoid inter-observer variability.
# [2] = system: inguinal fat pads transplanted to parascapular subcutaneous pockets; conditions: DFO injected fat grafts; cited from earlier work
# irradiated scalp skin = assay: Dermal thickness of irradiated skin, H&E stained sections; type: in vivo, mice; conditions: after DFO treatment, before fat grafting; saline 256.71±16.76; not significantly less
# Procedure: Adult 60-day-old male Crl:NU-Fox1^NU immunocompromised mice were used for experiments in this study. Twelve mice were treated with a total of 30 Gy external beam radiation, delivered as six fractionated doses of 5 Gy each over 12 days, followed by 5 weeks of recovery. An additional six non-irradiated mice were used as healthy controls for laser Doppler analysis (LDA) and skin analysis. Irradiated mice were divided into two treatment groups: a DFO experimental group and saline control group. Following recovery, mice underwent injection of either DFO (1 mg in 100 μl saline) or 100 μl of saline alone beneath the dermis every other day for a total of seven treatments. […] For skin analysis, scalp skin biopsy was harvested from both treatment groups following completion of radiation and then 8 weeks following fat grafting. […] Vascularity was determined with CD31 immunoflourescent staining (1:100 Ab28364; Abcam; Cambridge, Mass. and 1:200 AF547; Thermo Fisher Scientific; Waltham, Mass.) and DAPI counterstaining to visualize cell nuclei. Fluorescent images were obtained using an X-Cite 120 Fluorescence Illumination System (Lumen Dynamics Group, Inc.; Ontario, Canada) at the 20× objective. Quantification of CD31 staining was performed using ImageJ (National Institutes of Health; Bethesda, Md.), with pixel-positive area per high power field measured to determine vascular density (11). […]
structure (smiles),measurement,setting,value
"CC(=O)N(O)CCCCCNC(=O)CCC(=O)N(O)CCCCCNC(=O)CCC(=O)N(O)CCCCCN [DFO, Deferoxamine]",laser Doppler perfusion index at the irradiated scalp,"irradiated scalp; after four treatments of 1 mg DFO every other day beneath the dermis, 176.70±2.59 after irradiation, 265.23±7.01 pre-radiation baseline, mean±SE",205.08±2.30 LDPI
same,laser Doppler perfusion index following fat grafting,"irradiated scalp; eight weeks following grafting, saline 119.18±4.09, p>0.05",127.78±2.29 LDPI
same,laser Doppler perfusion index following fat grafting,"irradiated scalp; two weeks following injection of fat grafts, saline control 65.72±2.02, p<0.05",86.33±2.00 LDPI
same,fat graft volume retention,"[1]; two weeks after fat grafting, saline control 74.03",89.24%
same,fat graft volume retention,"[1]; week 6 after fat grafting, saline 52.40, p<0.05",73.17%
same,fat graft volume retention,"[1]; week 8 after fat grafting, saline 49.47, p<0.05",71.75%
same,inflammation and fibrosis in fat grafts,[2],more inflammation and fibrosis
same,dermal thickness of irradiated skin,irradiated scalp skin,242.09±7.22 μm

# From patent US11331288B2, “Conditioning irradiated tissue for increasing vascularity” (THE BOARD OF TRUSTEES OF THE LELAND STANFORD JUNIOR …, priority 2017, dated 2022)
